Entries after “also recorded” stand apart in the source; their conditions may differ.
Assays:
[1] = local, intravaginal suppository; cited from earlier work
[2] = cited from earlier work
[3] = 25 mg oral dose for three months; from 0.32 ng/mL before (doubling); cited from earlier work
estrogen-alpha receptor = molecular target: T1, estrogen-alpha receptor (Homo sapiens, UniProt P03372); assay: cell-based estrogen receptor bioassay (BG1 cells, luciferase reporter under four estrogen-response elements) for estrogenicity; conditions: for inherent estrogenic bioactivity (estrogenicity): at physiological circulating concentrations, FIG. 5 dose-response curves
T1 construct: human ovarian carcinoma cells (BG1) that have been stably transfected with a luciferase reporter gene plasmid; endogenous in cells; host or cells: BG1 human ovarian carcinoma cells stably transfected with an ERE-luciferase reporter plasmid
T1 sequence (P03372 whole entry): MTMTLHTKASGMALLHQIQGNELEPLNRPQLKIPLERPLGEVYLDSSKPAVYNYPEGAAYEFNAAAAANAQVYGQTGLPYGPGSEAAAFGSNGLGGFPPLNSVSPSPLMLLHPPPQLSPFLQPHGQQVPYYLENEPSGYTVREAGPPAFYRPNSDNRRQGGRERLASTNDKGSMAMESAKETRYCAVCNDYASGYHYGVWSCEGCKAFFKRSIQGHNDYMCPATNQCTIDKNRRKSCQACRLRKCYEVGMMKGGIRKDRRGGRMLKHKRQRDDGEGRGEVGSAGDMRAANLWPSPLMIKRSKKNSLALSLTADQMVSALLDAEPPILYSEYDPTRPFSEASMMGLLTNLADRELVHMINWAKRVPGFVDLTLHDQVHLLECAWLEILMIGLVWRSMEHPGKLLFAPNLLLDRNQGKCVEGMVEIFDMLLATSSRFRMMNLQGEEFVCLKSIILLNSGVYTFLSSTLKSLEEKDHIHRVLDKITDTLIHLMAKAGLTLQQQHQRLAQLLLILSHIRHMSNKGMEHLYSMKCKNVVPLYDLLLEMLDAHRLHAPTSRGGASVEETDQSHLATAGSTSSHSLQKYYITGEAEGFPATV
Source text: The total estrogen receptor ligand load (ERLL) can be determined using any method known in the art. The ERLL provides an estimate of the combined biological potential of the estrogen-alpha receptor ligand load contained in the sample. […] Other cell lines can find use. […] The detectable signal of any reporter gene known in the art can be used, including without limitation luciferase and fluorescent proteins (e.g., green fluorescent protein, yellow fluorescent protein, blue fluorescent protein, red fluorescent protein, etc.). In the case where […] is used as the reporter gene, […] substrate is added to the culture and the luciferase activity induced by the standards and/or test sample are measured using a Luminometer.
This assay assesses the total estrogenic bioactivity contained in a serum sample. Thus and estimate of the combined biological potential of the estrogen-alpha receptor ligand load (ERLL) contained in the sample. Thus the bioactivity of a sample will be appropriately estimated. Briefly, human ovarian carcinoma cells (BG1) that have been stably transfected with a luciferase reporter gene plasmid under the regulation of four estrogen-response elements were used to measure total bioactive estrogens. BG1 cells were cultured in Alpha Minimum Essential Medium (Alpha-MEM) with 10% fetal bovine serum (FBS). When cells reached 80% confluence, cells were trypsinized (0.05% trypsin-EDTA) and well dispersed in phenol-red free Dulbecco's […] (DMEM) supplemented with 10% dextran charcoal treated FBS (DCC-FBS). Suspended cells (0.05 mL/well; density of 25,000 cells/0.05 mL) were added to 96-well tissue culture plates containing 0.15 mL/well of phenol-red free DMEM supplemented with 10% DCC-FBS. On each of the two subsequent days (Days 2 and 3), the media in each well was removed and replaced with 0.2 mL phenol-red free DMEM supplemented with 10% DCC-FBS. […] To compensate for any serum matrix effects, DCC-FBS was added to the E2 standard preparation at a proportion equal to that of the serum content of the sample preparation (5% v/v). Serum samples were diluted in DCC-FBS with a final serum content of 5% (v/v). Plates were then incubated for an additional 18 hours. Media was then removed and 0.1 mL cell lysis buffer added to each well and allowed to incubate for 20 minutes. Cell lysates (0.04 mL) were transferred to 96-well Microfluor II plates (Fisher Scientific, Santa Clara, Calif.). Luciferin substrate was injected into each well and the luciferase activity induced by the standards and/or test serum was measured by a Veritas Luminometer (Turner Biosystems, Sunnyvale, Calif., USA).
The third element for developing the concept was that of gaining additional insight into the innate properties of all of the adrenal steroids that were associated with the rise of DS during the menopausal transition. For these investigations newly developed in vitro bioassays were used to adjudicate the estrogenicity of all for adrenal steroids (i.e., T, A-dione, 5A-diol and DHEA).

[4] = transdermal administration; 60-65 year old women; cited from earlier work
[5] = oral 50 mg/day for one year, women over 70 years old

Structure (SMILES): C[C@]12CC[C@H](O)CC1=CC[C@@H]1[C@@H]2CC[C@]2(C)C(=O)CC[C@@H]12 [DHEA, dehydroepiandrosterone]
- age-related vaginal atrophy [1]: highly efficient treatment
- change in circulating sex steroid concentrations [1]: no significant change
- BMD and bone resorption ([2]; 50 mg daily oral, adults 55-85 years of age, in women but not men): only modest effect
- muscle status ([2]; 50 mg/day oral, one year, men and women between 60 and 80 years of age): no positive effect
- bone turnover [2, 5]: modestly decrease
- libido [2, 5]: increase
- skin hydration [2, 5]: improve
- circulating concentration of A-diol after treatment [3]: 0.66 ng/mL
- estrogenic or not (discussion statement) (estrogen-alpha receptor): not estrogenic
- inherent estrogenic bioactivity (estrogenicity) (estrogen-alpha receptor): only 5A-diol and estradiol had substantial inherent estrogenic bioactivity; also recorded: does not
- increase in circulating DS [4]: five fold increase
- increase in circulating androstendiol glucuronides [4]: less than a two and one-half fold increase

Structure (SMILES): C[C@]12CC[C@H]3[C@@H](CC=C4C[C@@H](O)CC[C@@]43C)[C@@H]1CC[C@@H]2O [5A-diol, (3-beta,17-beta)-Androst-5-ene-3,17-diol]
- estrogenic or not (discussion statement) (estrogen-alpha receptor): is estrogenic
- inherent estrogenic bioactivity (estrogenicity) (estrogen-alpha receptor): substantial inherent estrogenic bioactivity
- inherent estrogenic bioactivity (estrogenicity) (estrogen-alpha receptor; listed as androstenediol): significant “estrogenicity” at physiological levels

Structure (SMILES): C[C@]12CC[C@H]3[C@@H](CCC4=CC(=O)CC[C@@]43C)[C@@H]1CC[C@@H]2O [T, testosterone]
- inherent estrogenic bioactivity (estrogenicity) (estrogen-alpha receptor): only 5A-diol and estradiol had substantial inherent estrogenic bioactivity

Structure (SMILES): C[C@]12CCC(=O)C=C1CC[C@@H]1[C@@H]2CC[C@]2(C)C(=O)CC[C@@H]12 [A-dione, androstendione]
- inherent estrogenic bioactivity (estrogenicity) (estrogen-alpha receptor): only 5A-diol and estradiol had substantial inherent estrogenic bioactivity

Reference: US8703751B2, “Androstenediol as an indicator for assessing estrogenicity” (The Regents of the University of California, priority 2009, dated 2014)
